Measured values taken from PubChem BioAssay AID330 (DTP/NCI, 2004).
“And” between values parts separate entries of the source, which are not always exact repeats. Identical values can stand only once. Inconclusive results and toxic doses are left out. How the source made its calls: active means survival T/C of 150% or more; inactive means T/C below 125% in these data.

Tested on: P388 leukemia ip, CD2F1 mice, survival T/C
Assay: NCI In Vivo Anticancer Drug Screen. Data for tumor model P388 Leukemia (intraperitoneal) in CD2F1 (CDF1) mice
Conditions: endpoint: median survival time, higher = longer survival
Summary of the method: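 Mice carrying the transplanted tumor received test compound or vehicle. Survival was recorded in each group, and the value is the treated-group measurement divided by that of the vehicle-treated control group.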

[1] = dose: 60.0 mg/kg/injection, schedule: Q01DX005 (ip), vehicle: saline with Tween-80
[2] = dose: 120.0 mg/kg/injection, schedule: Q01DX005 (ip), vehicle: saline with Tween-80
[3] = dose: 240.0 mg/kg/injection, schedule: Q01DX005 (ip), vehicle: saline with Tween-80
[4] = dose: 50.0 mg/kg/injection, schedule: Q01DX009 (ip), vehicle: saline with Tween-80
[5] = dose: 100.0 mg/kg/injection, schedule: Q01DX009 (ip), vehicle: saline with Tween-80
[6] = dose: 200.0 mg/kg/injection, schedule: Q01DX009 (ip), vehicle: saline with Tween-80
[7] = dose: 12.5 mg/kg/injection, schedule: Q01DX009 (ip), vehicle: saline
[8] = dose: 50.0 mg/kg/injection, schedule: Q01DX005 (ip), vehicle: saline with Tween-80
[9] = dose: 100.0 mg/kg/injection, schedule: Q01DX005 (ip), vehicle: saline with Tween-80
[10] = dose: 200.0 mg/kg/injection, schedule: Q01DX005 (ip), vehicle: saline with Tween-80
[11] = dose: 60.0 mg/kg/injection, schedule: Q01DX005 (ip), vehicle: Klucel (hydroxypropylcellulose) (HPC)
[12] = dose: 120.0 mg/kg/injection, schedule: Q01DX005 (ip), vehicle: Klucel (hydroxypropylcellulose) (HPC)
[13] = dose: 240.0 mg/kg/injection, schedule: Q01DX005 (ip), vehicle: Klucel (hydroxypropylcellulose) (HPC)
[14] = dose: 50.0 mg/kg/injection, schedule: Q01DX005 (ip), vehicle: Klucel (hydroxypropylcellulose) (HPC)

Measured: T/C

NC(=O)C1C=CN(Cc2ccccc2)C=C1
inactive: dose: 30.0 mg/kg/injection, schedule: Q01DX005 (ip), vehicle: saline with Tween-80 105 % of control and 106 % of control | [1] 108 % of control and 111 % of control and 123 % of control | [2] 117 % of control and 118 % of control | [3] 108 % of control and 123 % of control

OO.OO.[Cr+3].[NH-]CC[N-]CC[NH-]
inactive: [4] 94 % of control | [5] 99 % of control

Cn1c(=O)nc2n(C)c3ccccc3cc-2c1=O
inactive: [4] 116 % of control | [5] 116 % of control | [6] 113 % of control

CCSC(C#N)C(C)=O (configuration not stated)
inactive: [7] 106 % of control | dose: 25.0 mg/kg/injection, schedule: Q01DX009 (ip), vehicle: saline 97 % of control | [4] 100 % of control | dose: 50.0 mg/kg/injection, schedule: Q01DX009 (ip), vehicle: saline 100 % of control

O=C(NC(=O)c1cc2cc(Cl)cc(Cl)c2oc1=O)Oc1ccccc1
inactive: [8] 89 % of control | [9] 91 % of control | [10] 98 % of control

Cc1ccc(S(=O)(=O)N/N=C/c2ccc(N(C)C)cc2)cc1
inactive: dose: 12.5 mg/kg/injection, schedule: Q01DX009 (ip), vehicle: other 113 % of control | dose: 25.0 mg/kg/injection, schedule: Q01DX009 (ip), vehicle: other 96 % of control | dose: 50.0 mg/kg/injection, schedule: Q01DX009 (ip), vehicle: other 109 % of control | dose: 100.0 mg/kg/injection, schedule: Q01DX009 (ip), vehicle: other 100 % of control | dose: 200.0 mg/kg/injection, schedule: Q01DX009 (ip), vehicle: other 106 % of control | dose: 400.0 mg/kg/injection, schedule: Q01DX009 (ip), vehicle: other 100 % of control

O=[N+]([O-])c1ccc(Sc2ncnc3nc[nH]c23)c2nonc12
inactive: dose: 0.78 mg/kg/injection, schedule: Q01DX009 (ip), vehicle: Klucel (hydroxypropylcellulose) (HPC) 105 % of control | dose: 1.56 mg/kg/injection, schedule: Q01DX009 (ip), vehicle: Klucel (hydroxypropylcellulose) (HPC) 109 % of control and 86 % of control | dose: 3.12 mg/kg/injection, schedule: Q01DX009 (ip), vehicle: Klucel (hydroxypropylcellulose) (HPC) 99 % of control and 104 % of control | dose: 6.25 mg/kg/injection, schedule: Q01DX009 (ip), vehicle: Klucel (hydroxypropylcellulose) (HPC) 105 % of control and 98 % of control | dose: 12.5 mg/kg/injection, schedule: Q01DX009 (ip), vehicle: Klucel (hydroxypropylcellulose) (HPC) 113 % of control and 116 % of control and 122 % of control | dose: 25.0 mg/kg/injection, schedule: Q01DX009 (ip), vehicle: Klucel (hydroxypropylcellulose) (HPC) 112 % of control

Nc1nc(N)c2nc(/C(Cl)=N/O)cnc2n1
inactive: dose: 20.0 mg/kg/injection, schedule: Q01DX009 (ip), vehicle: saline 108 % of control | dose: 40.0 mg/kg/injection, schedule: Q01DX009 (ip), vehicle: saline 105 % of control | dose: 80.0 mg/kg/injection, schedule: Q01DX009 (ip), vehicle: saline 103 % of control

CN(C)/N=C1/CC(=O)CC(C)(C)C1
inactive: [11] 102 % of control | [12] 100 % of control | [13] 99 % of control

C=C1C2CCC3C(CCC4C35CCC[C@]4(C)CN3CCO[C@H]35)(C2)[C@@H]1O (some centres not stated)
inactive: dose: 4.0 mg/kg/injection, schedule: Q01DX009 (ip), vehicle: Klucel (hydroxypropylcellulose) (HPC) 108 % of control | dose: 8.0 mg/kg/injection, schedule: Q01DX009 (ip), vehicle: Klucel (hydroxypropylcellulose) (HPC) 110 % of control | dose: 16.0 mg/kg/injection, schedule: Q01DX009 (ip), vehicle: Klucel (hydroxypropylcellulose) (HPC) 94 % of control | dose: 32.0 mg/kg/injection, schedule: Q01DX009 (ip), vehicle: Klucel (hydroxypropylcellulose) (HPC) 99 % of control

CC(=O)OC(C[Se]c1ccccc1)OC(C)=O
inactive: dose: 37.5 mg/kg/injection, schedule: Q01DX001 (ip), vehicle: saline with Tween-80 105 % of control | dose: 75.0 mg/kg/injection, schedule: Q01DX001 (ip), vehicle: saline with Tween-80 99 % of control and 105 % of control

COc1ccc(C(=O)NCCN2CCN3Cc4[nH]c5ccccc5c4CC3C2)cc1 (configuration not stated)
inactive: dose: 25.0 mg/kg/injection, schedule: Q01DX001 (ip), vehicle: saline with Tween-80 95 % of control | dose: 50.0 mg/kg/injection, schedule: Q01DX001 (ip), vehicle: saline with Tween-80 97 % of control | dose: 100.0 mg/kg/injection, schedule: Q01DX001 (ip), vehicle: saline with Tween-80 95 % of control and 98 % of control

Nc1[nH]c(=S)[nH]c(=O)c1NS(=O)(=O)c1cccc([N+](=O)[O-])c1
inactive: dose: 30.0 mg/kg/injection, schedule: Q01DX005 (ip), vehicle: Klucel (hydroxypropylcellulose) (HPC) 103 % of control and 105 % of control | [11] 100 % of control and 97 % of control | [12] 98 % of control and 97 % of control | [13] 99 % of control and 106 % of control

Cc1nc2ccc3c(ccc4nc(C)c(N=Nc5ccc(C(=N)N)cc5)c(O)c43)c2c(O)c1N=Nc1ccc(C(=N)N)cc1
inactive: [8] 114 % of control | [9] 116 % of control | [10] 116 % of control

CC(=O)NS(=O)(=O)c1ccc(N)cc1
inactive: dose: 100.0 mg/kg/injection, schedule: Q01DX009 (ip), vehicle: saline sonified 109 % of control | dose: 132.0 mg/kg/injection, schedule: Q01DX009 (ip), vehicle: saline with Tween-80 104 % of control | [6] 104 % of control | dose: 300.0 mg/kg/injection, schedule: Q01DX009 (ip), vehicle: saline with Tween-80 113 % of control | dose: 400.0 mg/kg/injection, schedule: Q01DX009 (ip), vehicle: saline sonified 104 % of control

O=C(N/N=C/c1ccccc1Cl)c1cccnc1
inactive: [1] 90 % of control | [2] 93 % of control | [3] 89 % of control

COC(=O)C[CH2][Sn]([CH3])([CH3])[CH2]CC(=O)OC
inactive: [14] 104 % of control | dose: 100.0 mg/kg/injection, schedule: Q01DX005 (ip), vehicle: Klucel (hydroxypropylcellulose) (HPC) 100 % of control

COc1ccccc1C1OC(c2ccccc2OC)C2CCN(C)C2(C)O1 (configuration not stated)
inactive: dose: 100.0 mg/kg/injection, schedule: Q04DX002 (ip), vehicle: saline with Tween-80 92 % of control | dose: 200.0 mg/kg/injection, schedule: Q04DX002 (ip), vehicle: saline with Tween-80 91 % of control | dose: 400.0 mg/kg/injection, schedule: Q04DX002 (ip), vehicle: saline with Tween-80 101 % of control

O=c1[nH]cnc2cccc(Cl)c12
inactive: [1] 90 % of control | [2] 90 % of control | [3] 100 % of control

CN(C)CCCNC(=O)Cc1cc(O)c2c(c1O)C(=O)c1ccccc1C2=O
inactive: dose: 25.0 mg/kg/injection, schedule: Q04DX003 (ip), vehicle: saline with Tween-80 106 % of control | dose: 50.0 mg/kg/injection, schedule: Q04DX003 (ip), vehicle: saline with Tween-80 106 % of control | dose: 100.0 mg/kg/injection, schedule: Q04DX003 (ip), vehicle: saline with Tween-80 104 % of control and 123 % of control | dose: 200.0 mg/kg/injection, schedule: Q04DX003 (ip), vehicle: saline with Tween-80 120 % of control and 95 % of control

COC(=O)C1=CCC[C@H]2C1(C)CCC(C)C21CC(c2ccoc2)OC1=O (some centres not stated)
inactive: dose: 3.5 mg/kg/injection, schedule: Q01DX005 (ip), vehicle: Klucel (hydroxypropylcellulose) (HPC) 106 % of control | dose: 7.0 mg/kg/injection, schedule: Q01DX005 (ip), vehicle: Klucel (hydroxypropylcellulose) (HPC) 91 % of control | dose: 14.0 mg/kg/injection, schedule: Q01DX005 (ip), vehicle: Klucel (hydroxypropylcellulose) (HPC) 95 % of control | dose: 28.0 mg/kg/injection, schedule: Q01DX005 (ip), vehicle: Klucel (hydroxypropylcellulose) (HPC) 91 % of control | [14] 92 % of control

CCCC/[N+]([O-])=N/O
inactive: dose: 3.0 mg/kg/injection, schedule: Q01DX005 (ip), vehicle: Klucel (hydroxypropylcellulose) (HPC) 103 % of control | dose: 6.0 mg/kg/injection, schedule: Q01DX005 (ip), vehicle: Klucel (hydroxypropylcellulose) (HPC) 95 % of control | dose: 12.0 mg/kg/injection, schedule: Q01DX005 (ip), vehicle: Klucel (hydroxypropylcellulose) (HPC) 100 % of control | dose: 24.0 mg/kg/injection, schedule: Q01DX005 (ip), vehicle: Klucel (hydroxypropylcellulose) (HPC) 101 % of control

O=S(=O)(O)O.[Cu+2].[NH2-].[NH2-].[NH2-].[NH2-]
inactive: dose: 5.0 mg/kg/injection, schedule: Q04DX002 (ip), vehicle: saline 99 % of control | dose: 6.25 mg/kg/injection, schedule: Q01DX009 (ip), vehicle: saline 86 % of control | [7] 93 % of control
